Activity calls are given as the source filed them. The rule behind the calls is not given here.
Experiments:
[1] = Toxicity in athymic BALB/c nude mouse assessed as effect on lung at 1.5 mg/kg, ip measured after 21 days by H and E staining based histopathological analysis; assay type: organism-based; settings: in vivo, 504 h, time 21 day
BGC-823 [2] = assay: Induction of apoptosis in human BGC-823 cells assessed as increase in cleaved-caspase 9 expression at 0.15 to 0.6 uM incubated for 24 hrs by Western blot analysis; assay type: functional, cell-based; settings: dose 0.15-0.6 µM
HepG2 = assay: Antiproliferative activity against human HepG2 cells assessed as cell growth inhibition incubated for 48 hrs by MTT assay; assay type: functional, cell-based; settings: HepG2, 48 h
BGC-823 [3] = assay: Antitumor activity against human BGC-823 cells xenografted in athymic BALB/c nude mouse assessed increase in ROS level in tumor tissue by measuring increase in red fluorescence at 1.5 mg/kg, ip measured after 21 days by DHE staining based fluorescence microscopic analysis; assay type: functional, organism-based; settings: time 21.0 day
BGC-823 [4] = assay: Induction of apoptosis in human BGC-823 cells assessed as necrotic cells at 0.15 uM incubated for 24 hrs by annexin-V-FITC and PI staining based flow cytometry analysis (reference value: 0.6%); assay type: functional
BGC-823 [5] = assay: Induction of apoptosis in human BGC-823 cells assessed as late apoptotic cells at 0.3 uM incubated for 24 hrs by annexin-V-FITC and PI staining based flow cytometry analysis (reference value: 0.6%); assay type: functional
BGC-823 [6] = assay: Induction of cell cycle arrest in human BGC-823 cells assessed as accumulation of cells at S phase at 0.3 uM incubated for 24 hrs by PI staining based flow cytometry method (reference value: 26.01%); assay type: functional
BGC-823 [7] = assay: Induction of apoptosis in human BGC-823 cells assessed as increase in cleaved PARP expression at 0.15 to 0.6 uM incubated for 24 hrs by Western blot analysis; assay type: functional, cell-based; settings: dose 0.15-0.6 µM
[8] = Toxicity in athymic BALB/c nude mouse assessed as effect on spleen at 1.5 mg/kg, ip measured after 21 days by H and E staining based histopathological analysis; assay type: organism-based; settings: in vivo, 504 h, time 21 day
BGC-823 [9] = assay: Induction of apoptosis in human BGC-823 cells assessed as reduction in total number of cells at 0.15 to 0.6 uM incubated for 24 hrs by Hoechst 33342 staining based flourescence microscopy method; assay type: functional, cell-based; settings: dose 0.15-0.6 µM
BGC-823 [10] = assay: Induction of JNK phosphorylation in human BGC-823 cells at 0.15 to 0.6 uM incubated for 24 hrs by Western blot analysis; assay type: functional, cell-based; settings: dose 0.15-0.6 µM
BGC-823 [11] = assay: Induction of apoptosis in human BGC-823 cells assessed as early apoptotic cells at 0.3 uM incubated for 24 hrs by annexin-V-FITC and PI staining based flow cytometry analysis (reference value: 2.4%); assay type: functional
[12] = Toxicity in athymic BALB/c nude mouse assessed as change in body weight at 1.5 mg/kg, ip measured every 2 days for 21 days; assay type: organism-based; settings: in vivo, 504 h, time 21 day
BGC-823 [13] = assay: Upregulation of Bcl-2 family proteins in human BGC-823 cells at 0.15 to 0.6 uM incubated for 24 hrs by Western blot analysis; assay type: functional, cell-based; settings: dose 0.15-0.6 µM
BGC-823 [14] = assay: Induction of cell cycle arrest in human BGC-823 cells assessed as accumulation of cells at G0/G1 phase at 0.6 uM incubated for 24 hrs by PI staining based flow cytometry method (reference value: 50.66%); assay type: functional

For `CCOC(=O)c1cnn(CCCOC(=O)[C@]2(C)CC[C@]3(C)CC[C@]4(C)C5=CC=C6C(=CC(=O)C(O)=C6C)[C@]5(C)CC[C@@]4(C)[C@@H]3C2)c1`, the Activity [1] was “Non-Toxic”, the Activity (BGC-823 [2]) was “Active” and the IC50 (HepG2) was 350 nM. For the same compound, the Activity (BGC-823 [3]) was “Active”, the Activity (BGC-823 [4]) was 0.2% and the Activity (BGC-823 [5]) was 4.8%. For the same compound, the Activity (BGC-823 [6]) was 23.91%, the Activity (BGC-823 [7]) was “Active” and the Activity [8] was “Non-Toxic”. The Activity (BGC-823 [9]) was “Active”, the Activity (BGC-823 [10]) was “Active” and the Activity (BGC-823 [11]) was 16.5%. The Activity [12] was “Non-Toxic”, the Activity (BGC-823 [13]) was “Active” and the Activity (BGC-823 [14]) was 37.39%.

Reference: ChEMBL document CHEMBL5120866, “Design and Synthesis of Novel Celastrol Derivatives as Potential Anticancer Agents against Gastric Cancer Cells” (J Nat Prod, 2022)
